“Also recorded” adds a separate entry of the source. Where two headings read alike, the source gives them in different places.
Tests used:
[1] = in vivo; cited from earlier work
[2] = in vivo; cited from earlier work; remark: listed apart in the source
[3] = Experimental: Stability was determined visually by separation of the emulsion and also analytically by changes in measured concentration of the cream and/or the formation of degradation products. […] Heavier oils include petrolatum or mineral oil.
[4] = estimated 250 times lower than rat plasma levels
psoriatic lesions = details: for Number of psoriatic lesions: 2% propofol solution twice daily
Remark: listed apart in the source
Description: Areas of the lesion are roughly outlined.
The plaque psoriatic lesion was raised and more lightly colored than the unaffected skin.

oxalobenzone treated ear = assay: Oxalobenzone induced mouse ear inflammatory model (ear thickness); format: in vivo; details: for Inflammation (ear thickness): 100 μl at 1 hour and 6 hours post challenge, 24 hours and 48 hours
Experimental: Animals were sensitized to oxalbenzone on the abdomen on day 2 with 150 μl 3% oxalbenzone. Animals were challenged on day 5 with 1% oxalobenzone to both sides of one ear. This served as an in vivo pharmacological disease models for psoriasis and atopic dermatitis.
Ear thickness was measured with calipers at 24 hours and 48 hours and compared to contralateral non-challenged ear. Ear thickness served as an indication of swelling due to inflammation. The greater the ear thickness, the greater the inflammation.

[5] = local administration of propofol
[6] = 20% propofol-propylene glycol plus 30% w/w surfactant penetration enhancer
[7] = 20% w/w propofol in propylene glycol

CC(C)c1cccc(C(C)C)c1O [propofol]
Oral bioavailability [1]: < 10%
Plasma levels at which wakening from propofol anesthesia occurs [2]: less than 500 μg/ml
Plasma steady state levels used to maintain anesthetized state [2]: 1,000-2,000 ng/ml
Stability ([3]; oil-in-water or water-in-oil formulations with a heavier oil or longer chain oil (petrolatum or mineral oil)): stable
Stability ([3]; penetration enhancer limited to less than 10% w/w, particularly propofol greater than 2%): stable
Stability ([3]; propofol >10% w/w in HRT™ (gel or cream)): not stable
Stability ([3]; propofol >10% w/w in Lipoderm®): not stable
Stability ([3]; propofol >10% w/w in Medihol™ gel base): not stable
Stability ([3]; propofol >10% w/w in Vanish-Pen™ Cream base): not stable
Stability ([3]; propofol >10% w/w in VersaPro™ (lotion or cream)): not stable
Stability ([3]; propofol at 10% w/w in Lipoderm® (mineral oil-free)): not stable
Human equivalent plasma concentration [4]: 0.4 to 2 ng/mL
Number of psoriatic lesions (psoriatic lesions; after a week): further reduced
Number of psoriatic lesions (psoriatic lesions; after three days): reduced
Plaque psoriatic lesion height and area, left forearm (psoriatic lesions; 10% propofol in cream twice daily, over the course of treatment): diminished in height and area
Local anti-inflammatory effect (psoriatic lesions; [5]): anti-inflammatory effects locally
Sustained anti-nociceptive effect (psoriatic lesions; [5]): reduced sensation of itch and burning
Psoriatic lesions (FIG. 7 legend) (psoriatic lesions; propofol in a cream based formulation): reduced
Neurogenic inflammation (psoriatic lesions; repeated application of propofol): less neurogenic inflammation
Gutate and plaque psoriatic lesions (psoriatic lesions; topical application of propofol, summary): resolution of gutate and plaque psoriatic lesions
Increase of plasma concentration [6]: 3 to 5 fold
Plasma concentration [6]: approximately 350 ng/ml
Increase of plasma concentration [7]: 2-3 fold
Plasma concentration [7]: 0.175 to 0.2 µg/mL
Plasma concentration (rats, 500 mg of 100% propofol on skin, ~[…] body surface area): 0.4 µg/mL
Plasma levels (rats, 20% w/w propofol in petrolatum (100 mg total dose), ~[…] body surface area): 0.05 to 0.1 µg/mL
Acute skin reaction (redness with wheal-flare effect) (skin; 10% propofol in DMSO): significant burning and inflammation
Time to onset of burning and inflammation after treatment (skin; 10% propofol in DMSO): 10 to 15 min
Time until acute effect resolved (skin; 10% propofol in DMSO): about 90 minutes
Treatment effect despite initial inflammatory response (skin; 10% propofol in DMSO): significant treatment effect
Acute skin reaction (redness with wheal-flare effect) (skin; 10% propofol in mineral oil containing cream): did not result in this effect
Inflammation (ear thickness) (oxalobenzone treated ear; 10% w/w propofol in DMSO): significantly reduces inflammation
Inflammation (ear thickness) (oxalobenzone treated ear; 20% w/w propofol in DMSO): significantly reduces inflammation
Skin inflammation / ear swelling (oxalobenzone treated ear; topical propofol, formulation not specified at the place): reduces skin inflammation; also recorded: reduces ear swelling and inflammation

From US20210038503A1, “COMPOSITIONS AND METHODS FOR TOPICAL TREATMENT OF DERMAL AND OCULAR CONDITIONS” (GABADERM, INC., priority 2018, published 2021)
